Assay results from ChEMBL document CHEMBL2021893, “Synthesis, structure-activity relationship and in vitro anti-mycobacterial evaluation of 13-n-octylberberine derivatives” (2012).
Values after ≈ are worked out from the molar mass of the structure shown.

Experiments:
Type in all cases: functional
[1] = system: Mycobacterium tuberculosis; assay: Antimycobacterial activity against multidrug-resistant Mycobacterium tuberculosis isolate 164 from Chinese tuberculosis patient measured 24 hrs post dose by microplate alamar blue assay; conditions: isolate 164, 24 h
[2] = system: Mycobacterium tuberculosis; assay: Antimycobacterial activity against multidrug-resistant Mycobacterium tuberculosis isolate 926 from Chinese tuberculosis patient measured 24 hrs post dose by microplate alamar blue assay; conditions: isolate 926, 24 h
[3] = system: Mycobacterium tuberculosis; assay: Antimycobacterial activity against multidrug-resistant Mycobacterium tuberculosis isolate 83 from Chinese tuberculosis patient measured 24 hrs post dose by microplate alamar blue assay; conditions: isolate 83, 24 h
[4] = system: Mycobacterium tuberculosis; assay: Antimycobacterial activity against multidrug-resistant Mycobacterium tuberculosis isolate 431 from Chinese tuberculosis patient measured 24 hrs post dose by microplate alamar blue assay; conditions: isolate 431, 24 h
[5] = system: Mycobacterium tuberculosis; assay: Antimycobacterial activity against multidrug-resistant Mycobacterium tuberculosis isolate 44 from Chinese tuberculosis patient measured 24 hrs post dose by microplate alamar blue assay; conditions: isolate 44, 24 h

| Structure (SMILES) | MIC [1] [µg/mL] | MIC [2] [µg/mL] | MIC [3] [µg/mL] | MIC [4] [µg/mL] | MIC [5] [µg/mL] |
| --- | --- | --- | --- | --- | --- |
| CO[C@H]1/C=C/O[C@@]2(C)Oc3c(C)c(O)c4c(O)c(c(/C=N/N5CCN(C)CC5)c(O)c4c3C2=O)NC(=O)/C(C)=C\C=C\[C@H](C)[C@H](O)[C@@H](C)[C@@H](O)[C@@H](C)[C@H](OC(C)=O)[C@@H]1C [RIFAMPIN] | > 64 | > 32 | > 64 | > 64 | 64 (≈ 77.8 µM) |
| NNC(=O)c1ccncc1 [ISONIAZID] | 4 (≈ 29.2 µM) | 32 (≈ 233 µM) | 4 (≈ 29.2 µM) | 64 (≈ 467 µM) | 4 (≈ 29.2 µM) |
| CCCCCCCCc1c2[n+](cc3c(OC)c(OC)ccc13)CCc1cc(OCC)c(OCC)cc1-2.[Cl-] | 4 | 4 | 4 | – | 4 |
| CCCCCCCCc1c2[n+](cc3c(OCC)c(OC)ccc13)CCc1cc(OCC)c(OCC)cc1-2.[Cl-] | 0.125 | 0.125 | 0.5 | 0.5 | 0.25 |
| CCCCCCCCc1c2[n+](cc3c(OCc4ccccc4)c(OC)ccc13)CCc1cc(OCc3ccccc3)c(O)cc1-2.[Cl-] | 1 | 0.5 | 1 | 0.25 | 0.5 |
| CCCCCCCCc1c2[n+](cc3c(OC)c(OC)ccc13)CCc1cc3c(cc1-2)OCO3.[Cl-] | 4 | – | 4 | 4 | 4 |
